Target: T1, α-amylase
T1 construct: gene AMY2A
Assay: EnzChek Ultra Amylase assay kit, enzyme inhibition
Assay type: biochemical

| Structure (SMILES) | IC50 |
| --- | --- |
| COc1cc2oc3cc(O)c(/C=C/C(C)(C)O)c(O)c3c(=O)c2c(CC=C(C)C)c1OC [compound 1, 1,3-dihyroxy-6,7-dimethoxy-2-(3-hydroxy-3-methylbut-1-enyl)-8-(3-methylbut-2-enyl)-xanthone] | 17.8 µM |
| C[C@@H]1O[C@@H](Oc2cc(O)cc(O)c2C(=O)c2cccc(O)c2)[C@H](O)[C@H](O)[C@H]1O [compound 9, garcimangophenone C] | 12.9 µM |

— PMC9696494, “Garcixanthone E and Garcimangophenone C: New Metabolites from Garcinia mangostana and Their Cytotoxic and Alpha Amylase Inhibitory Potential” (Life, 2022)
